Test results reported in US20130101628A1 (NORTHWESTERN UNIVERSITY, priority 2011, published 2013).
* marks the point of attachment. Palmitoyl = CCCCCCCCCCCCCCCC(=O)*

What was measured:
HUVECs [1] = assay: HUVEC migration scratch assay; format: cell-based, human; details: 1 μM in EBM with 0.5% FBS, 18 hours; untreated 25.2%
Protocol: To evaluate cell migration, endothelial basal media (EBM) without growth factors (Lonza) was supplemented with 0.5% FBS in order to prevent apoptosis but not promote significant migration or proliferation. Cells were grown to confluence in a 12 well plate and a 1 ml pipette tip was used to create a denuded scratch and the surface was washed twice with PBS to remove detached cells. The average scratch width at the initial time-point was […] Markings were placed on the underside of the plate to ensure the same region of the scratch was recorded in each image. […] The total pixel area of the scratch at the initial time-point was recorded using ImageJ analysis software, and the percent migration was determined from the reduction in denuded area at 18 hours.

HUVECs [2] = assay: HUVEC proliferation (CyQUANT-NF cell number); format: cell-based, human; details: 1 μM in EGM, 48 hours; untreated control 100.0%
Protocol: In vitro studies were performed using HUVECs, a primary endothelial cell that is VEGF-responsive and frequently used as a model endothelial cell for angiogenesis studies in vitro [31].
To evaluate proliferation, HUVECs were plated at 5000 per well in a 96 well plate. […] Additionally, unsupplemented growth media was used as a control. After 48 hours, cell number was quantified using CyQUANT-NF (Invitrogen) and a standard fluorescent microplate reader. Cell number is expressed relative to the group treated with unsupplemented growth media.

ischemic hind-limb = assay: Murine hind-limb ischemia (HLI) model; format: in vivo, mice; details: for limb motor function score / tissue (limb) salvage score: single i.m. injection 25 μl of 2 mM; for limb motor function score: grade 1-5; for tissue (limb) salvage score: grade 1-6
Protocol: For the HLI procedure, eight week old male FVB wild-type mice (Charles River) were anesthetized by intraperitoneal injection of avertin (125 mg/kg). By means of a dissecting microscope, the femoral nerve was carefully separated from the vessel bundle. The right femoral artery was ligated and excised, including all superficial and deep branches. Critical limb ischemia was immediately verified by laser Doppler imaging (LDPI, MoorLDI-SIM, Moor Instruments, Ltd) to ensure the ratio (ischemic/non-ischemic limb) was ≦0.20. At postoperative day 3, outliers with low ischemia were triaged based on LDPI (ratio ischemic/nonischemic 0.30) as were outliers with extreme ischemia (necrotic demarcation of entire limb), determined by macroscopic evaluation. […] For follow-up, animals underwent reevaluations with LDPI at postoperative day 7, 14, and 28 before animals were sacrificed (CO, asphyxia) for tissue harvest at day 28. At each time-point, tissue perfusion was measured via LDPI, measuring blood flow in both the ischemic and non-ischemic limb and reporting results as the ratio of these two measurements. All LDPI measurements were taken on a 37° C. heating pad to control body temperature. In addition, motor function and tissue damage was semi-quantitatively assessed on post-operative day 7, 14, 21 and 28 by established scoring systems. Tissue damage in the ischemic limb (limb salvage score) was graded as full recovery (grade 6), minor necrosis or nail loss (grade 5), partial toe amputation (grade 4), total toe amputation (grade 3), partial/total foot amputation (grade 2) or partial/total limb amputation (grade 1) (modified from). Limb motor function was graded as unrestricted (grade 5), no active use of toe(s) or spreading (grade 4), restricted foot use (grade 3), no use of foot (grade 2) or no use of limb at all (grade 1) (modified from). Finally, walking capacity was measured via a Rota Rod apparatus. […] The mean of two assessments was used as for failure time for each animal. At day 28, muscle tissue from the ischemic limb was harvested, fixed in methanol, paraffin-embedded, and cross-sectioned (6-μm) for histological immunostaining. Briefly, sections were blocked with 10% donkey serum (30 min, RT). Primary antibodies were diluted in PBS containing BSA, and applied to tissue slices for 2 hrs at 37° C. Sections were stained for CD31, an endothelial-specific marker, using rat anti-CD31 antibodies (BD Pharmingen Inc) and smooth-muscle α-actin (αSMA), a vascular smooth muscle marker, using rabbit-anti-αSMA (Sigma-Aldrich Co.). For immunofluorescent detection, primary antibodies were resolved with Alexa-Fluor-conjugated secondary antibodies (Invitrogen Corporation, Carlsbad, Calif., USA dilution) and nuclei were counterstained with DAPI (Research Organics). Slides were imaged using fluorescent microscopy (Zeiss), and CD31+capillary forms and CD31+/sMA+]mature microvessels/arterioles were quantified in 3 separate high-power fields (20×) from 3 independent sections in each animal (9 images/animal). All error bars indicate the standard error of the mean. Differences between groups were determined using a one-way analysis of variance (ANOVA) with a Bonferroni multiple comparisons post-hoc test using GraphPad InStat v3.0b. […] VEGF-PA or control treatments were administered by an intramuscular injection three days following the induction of critical ischemia by ligation and excision of the right femoral artery and all superficial and deep branches, as described above. Animals were assessed serially throughout the study for motor function and limb salvage and Laser Doppler perfusion imaging (LDPI) was used to assess tissue perfusion. At the end of the study, exercise endurance was recorded on a Rota Rod treadmill and tissue was harvested for immunohistological staining of capillaries to observe effects on the microcirculation.

[3] = system: chicken chorioallantoic membrane (CAM); assay: Shell-less chicken chorioallantoic membrane (CAM) angiogenesis assay; format: in vivo; details: 2 mM in PBS dried on coverslip, three days following treatment; saline 132%
From the text: An established assay reflecting in vivo angiogenesis, the chicken chorioallantoic membrane (CAM) assay, was used to evaluate the angiogenic potential of the VEGF-PA of the present examples. This assay utilizes the extra-embryonic allantois, a tissue derived from the mesoderm that develops into a densely vascularized membrane. A common deviation from the traditional assay is to remove the shell and conduct the assay on a shell-less embryo, termed the shell-less CAM assay, as we have performed here. Fertilized white leghorn chicken eggs (Phil's Fresh Eggs, Forreston, Ill.) were received and cultured in a temperature controlled, humidified egg incubator. On embryonic day 3, eggs were cracked within a sterile tissue culture hood into round 100 mm petri dishes. Fertilized embryos were then transferred to a water-jacketed CO2 incubator, set to 37.5° C., 1% CO2 and 100% relative humidity. On embryonic day 10, the material treatment was dissolved at 2 mM in PBS, evaporated onto the surface of a 5 mm round glass cover slip, and placed facing down on top of the CAM (n=16/group). Digital images were captured through the eyepiece of a Nikon stereomicroscope and vessel density was quantified by the number of intersections of vessel structures with the edge of the cover slip and expressed relative to the initial time-point. Images were captured daily, beginning at embryonic day 10 and culminating on embryonic day 13, the standard range over which the CAM assay is performed. Additionally, images were assessed qualitatively for morphological differences in the CAM vasculature including spoking, branching and leakage.

[4] = biological target: T1, VEGF receptor 2 (VEGFR2 or KDR) (Homo sapiens, UniProt P35968); assay: Sandwich ELISA of phosphorylated VEGFR2 in lysates of stimulated HUVEC; format: cell-based; details: HUVEC, 1 μM, 2 minutes exposure; untreated control 1.000±0.109
T1 construct: host or cells: HUVEC
T1 sequence (P35968 20-1356): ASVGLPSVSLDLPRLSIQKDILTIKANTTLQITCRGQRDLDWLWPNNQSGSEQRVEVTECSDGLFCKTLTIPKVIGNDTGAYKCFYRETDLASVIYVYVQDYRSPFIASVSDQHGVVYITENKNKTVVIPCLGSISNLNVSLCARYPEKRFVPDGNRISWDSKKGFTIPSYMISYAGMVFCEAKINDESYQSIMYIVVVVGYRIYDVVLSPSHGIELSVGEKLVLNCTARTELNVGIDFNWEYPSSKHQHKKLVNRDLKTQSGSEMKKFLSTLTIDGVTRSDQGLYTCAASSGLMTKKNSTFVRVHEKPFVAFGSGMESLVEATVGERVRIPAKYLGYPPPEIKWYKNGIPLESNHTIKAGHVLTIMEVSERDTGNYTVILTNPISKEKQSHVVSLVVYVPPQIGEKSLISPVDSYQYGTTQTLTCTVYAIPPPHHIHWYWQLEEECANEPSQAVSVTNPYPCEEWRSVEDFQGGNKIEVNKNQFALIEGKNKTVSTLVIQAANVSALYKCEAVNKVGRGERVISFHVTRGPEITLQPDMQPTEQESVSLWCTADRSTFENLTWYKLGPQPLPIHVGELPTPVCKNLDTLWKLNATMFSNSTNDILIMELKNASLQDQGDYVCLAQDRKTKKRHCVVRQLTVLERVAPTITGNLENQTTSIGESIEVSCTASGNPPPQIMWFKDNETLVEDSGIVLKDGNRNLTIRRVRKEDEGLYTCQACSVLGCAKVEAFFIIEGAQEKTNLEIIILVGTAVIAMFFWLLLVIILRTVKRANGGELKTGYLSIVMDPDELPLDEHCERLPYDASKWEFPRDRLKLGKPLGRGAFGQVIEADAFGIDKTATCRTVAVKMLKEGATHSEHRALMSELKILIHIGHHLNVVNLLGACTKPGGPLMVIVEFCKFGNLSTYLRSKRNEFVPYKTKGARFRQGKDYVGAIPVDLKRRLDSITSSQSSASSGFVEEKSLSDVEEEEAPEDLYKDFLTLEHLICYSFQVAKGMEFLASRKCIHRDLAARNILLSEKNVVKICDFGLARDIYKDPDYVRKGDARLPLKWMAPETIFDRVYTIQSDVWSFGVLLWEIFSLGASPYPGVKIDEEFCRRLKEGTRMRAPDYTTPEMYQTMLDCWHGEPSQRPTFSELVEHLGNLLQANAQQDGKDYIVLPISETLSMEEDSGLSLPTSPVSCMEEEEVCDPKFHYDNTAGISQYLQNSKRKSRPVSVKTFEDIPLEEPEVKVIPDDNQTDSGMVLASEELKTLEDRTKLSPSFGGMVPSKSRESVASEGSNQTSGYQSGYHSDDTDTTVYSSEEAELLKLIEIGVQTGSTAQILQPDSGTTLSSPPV
Protocol: Human umbilical vein endothelial cells (HUVECs) and complete endothelial cell growth media (EGM) were purchased (Genlantis, San Diego, Calif.), passaged two times following receipt, and cryo-preserved in media with 5% DMSO. Cells were thawed as needed and grown to confluence in a […] flasks (VWR Falcon) prior to plating for experiments.
Phosphorylation of both VEGFRI and VEGFR2 was assayed using commercially available assay kit (R&D Systems, Minneapolis, Minn.) following the recommended protocol. First, confluent HUVECs plated in 24 well plates were starved for 5 hours in serum-free defined media (SFDM, Genlantis) specifically designed to maintain cells in a growth factor-free setting for growth factor signaling and metabolic assays. Following starvation, the various treatments were dissolved in SFDM to a concentration of 1 μM. […] Cells were exposed to treatment for 2 minutes. To evaluate the time-course of phosphorylation the same protocol was followed and cells were exposed to VEGF-PA for 0, 1, 3, 5, 10, 15, 20, 25, 30, 40, 50, and 60 minutes.

HUVECs [5] = assay: HUVEC survival after serum-starvation (Annexin V-PE apoptosis); format: cell-based, human; details: 1 μM in EBM, serum-starvation 24 hours; untreated 31.7%
Protocol: To evaluate cell survival, endothelial basal media (EBM) without growth factors (Lonza) was used to induce a serum-starvation. Cells were plated in 12 well plates and grown to confluence with standard growth media. […] Cells were grown in these conditions for 24 hours. Survival was quantified using Annexin V: PE staining with 7-AAD vital staining (BD Biosciences) following provided assay instructions and analyzed on a DakoCytomation CyAn. Survival was assessed by determining the fraction of cells that were apoptotic (Annexin V-PE positive).

VEGF receptor 1 = VEGF receptor 1 (human, UniProt P17948 27-1338); assay: cell-based or functional assay
Sequence of VEGF receptor 1 (P17948 27-1338): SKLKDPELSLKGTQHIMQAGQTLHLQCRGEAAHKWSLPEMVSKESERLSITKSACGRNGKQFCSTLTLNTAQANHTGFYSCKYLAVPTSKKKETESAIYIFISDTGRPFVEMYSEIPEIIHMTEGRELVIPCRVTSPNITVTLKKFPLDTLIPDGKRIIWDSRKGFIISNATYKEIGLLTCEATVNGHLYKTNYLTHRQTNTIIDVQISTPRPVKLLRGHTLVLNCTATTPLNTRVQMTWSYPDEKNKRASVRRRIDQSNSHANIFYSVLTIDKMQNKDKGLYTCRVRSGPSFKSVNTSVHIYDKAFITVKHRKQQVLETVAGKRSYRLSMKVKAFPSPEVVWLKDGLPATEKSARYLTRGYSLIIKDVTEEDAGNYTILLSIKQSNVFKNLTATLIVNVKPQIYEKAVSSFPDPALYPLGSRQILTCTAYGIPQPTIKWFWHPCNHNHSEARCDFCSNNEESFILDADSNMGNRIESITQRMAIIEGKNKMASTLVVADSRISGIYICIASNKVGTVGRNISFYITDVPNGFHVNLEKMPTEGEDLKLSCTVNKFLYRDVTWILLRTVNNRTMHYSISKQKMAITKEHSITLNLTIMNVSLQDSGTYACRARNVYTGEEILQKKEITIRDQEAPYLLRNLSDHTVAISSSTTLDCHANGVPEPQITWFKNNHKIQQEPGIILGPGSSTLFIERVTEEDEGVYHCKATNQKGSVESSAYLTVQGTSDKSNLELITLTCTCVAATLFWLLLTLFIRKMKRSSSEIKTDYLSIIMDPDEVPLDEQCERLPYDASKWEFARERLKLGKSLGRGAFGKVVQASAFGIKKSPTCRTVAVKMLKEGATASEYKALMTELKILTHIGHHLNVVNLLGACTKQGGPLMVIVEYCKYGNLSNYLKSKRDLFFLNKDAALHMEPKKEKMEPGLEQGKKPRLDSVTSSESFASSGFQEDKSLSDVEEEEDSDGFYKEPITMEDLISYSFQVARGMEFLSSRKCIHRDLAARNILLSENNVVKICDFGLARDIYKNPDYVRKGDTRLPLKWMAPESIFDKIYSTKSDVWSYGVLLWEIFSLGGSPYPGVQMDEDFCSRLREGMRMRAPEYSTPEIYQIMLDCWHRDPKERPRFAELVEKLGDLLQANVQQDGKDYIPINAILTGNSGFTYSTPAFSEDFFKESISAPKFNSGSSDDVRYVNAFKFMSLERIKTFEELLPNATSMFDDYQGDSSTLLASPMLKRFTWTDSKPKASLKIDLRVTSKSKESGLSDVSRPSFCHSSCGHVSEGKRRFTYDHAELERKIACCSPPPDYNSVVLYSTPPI

Molecule: Ac-KLTWQELYQLKYKGI-NH2 [VEGF peptide]
- reduction in scratch wound size (denuded area) (HUVECs [1]): 52.5%±4.1%
- proliferation (cell number relative to unsupplemented growth media) (HUVECs [2]): 98.4%±0.7%
- LDPI perfusion ratio (ischemic/non-ischemic limb) (ischemic hind-limb; 14 days after induction of ischemia): 0.54±0.06
- limb motor function score (ischemic hind-limb; day 21): 3.41±0.21
- tissue (limb) salvage score (ischemic hind-limb; day 21): 3.45±0.25
- LDPI perfusion ratio (ischemic/non-ischemic limb) (ischemic hind-limb; day 28): 0.52±0.06
- Rota Rod walking time prior to failure (ischemic hind-limb; day 28, saline 90.4 seconds): 115.6 ± 10.9 s
- limb motor function score (ischemic hind-limb; day 28): 3.50±0.17
- tissue (limb) salvage score (ischemic hind-limb; day 28): 3.45±0.25
- number of CD31+ capillaries in ischemic limb muscle (ischemic hind-limb; tissue harvested at day 28, saline 893/mm2): 949±48 /mm2
- blood vessels relative to the initial value [3]: 139%±11%
- VEGFR2 phosphorylation level relative to untreated control [4]: 1.343±0.050
- fraction of apoptotic cells (Annexin V-PE positive) (HUVECs [5]): 23.4%±1.1%

Molecule: Native VEGF (from UniProt P15692 27-191) (ligand)
- amount of phosphorylated VEGFR1 relative to untreated control (sandwich ELISA on HUVEC lysates, 100 ng/ml, 2 min) (fold of untreated control) (VEGF receptor 1): 1.31

B1: VEGF-PA (CH3(CH2)14C(O)-VVAAKKKGKLTWQELYQLKYKGI-NH2) (peptide)
peptide: Palmitoyl-VVAAKKKGKLTWQELYQLKYKGI-NH2
SMILES: CCCCCCCCCCCCCCCC(=O)N[C@H](C(=O)N[C@H](C(=O)N[C@@H](C)C(=O)N[C@@H](C)C(=O)N[C@@H](CCCCN)C(=O)N[C@@H](CCCCN)C(=O)N[C@@H](CCCCN)C(=O)NCC(=O)N[C@@H](CCCCN)C(=O)N[C@@H](CC(C)C)C(=O)N[C@H](C(=O)N[C@@H](Cc1c[nH]c2ccccc12)C(=O)N[C@@H](CCC(N)=O)C(=O)N[C@@H](CCC(=O)O)C(=O)N[C@@H](CC(C)C)C(=O)N[C@@H](Cc1ccc(O)cc1)C(=O)N[C@@H](CCC(N)=O)C(=O)N[C@@H](CC(C)C)C(=O)N[C@@H](CCCCN)C(=O)N[C@@H](Cc1ccc(O)cc1)C(=O)N[C@@H](CCCCN)C(=O)NCC(=O)N[C@H](C(N)=O)[C@@H](C)CC)[C@@H](C)O)C(C)C)C(C)C
- amount of phosphorylated VEGFR1 relative to untreated control (sandwich ELISA on HUVEC lysates, 1 uM, 2 min) (VEGF receptor 1): 1.63 fold of untreated control

Molecule: Ac-KLTWQELYQLKYKGI-NH2 [VEGF peptide (Ac-KLTWQELYQLKYKGI-NH2)]
- amount of phosphorylated VEGFR1 relative to untreated control (sandwich ELISA on HUVEC lysates, 1 uM, 2 min) (VEGF receptor 1): 1.33 fold of untreated control

B2: mutant PA (CH3(CH2)14C(O)-VVAAKKKGKLTAQELVFLKVKGI-NH2) (peptide)
peptide: Palmitoyl-VVAAKKKGKLTAQELVFLKVKGI-NH2
SMILES: CCCCCCCCCCCCCCCC(=O)N[C@H](C(=O)N[C@H](C(=O)N[C@@H](C)C(=O)N[C@@H](C)C(=O)N[C@@H](CCCCN)C(=O)N[C@@H](CCCCN)C(=O)N[C@@H](CCCCN)C(=O)NCC(=O)N[C@@H](CCCCN)C(=O)N[C@@H](CC(C)C)C(=O)N[C@H](C(=O)N[C@@H](C)C(=O)N[C@@H](CCC(N)=O)C(=O)N[C@@H](CCC(=O)O)C(=O)N[C@@H](CC(C)C)C(=O)N[C@H](C(=O)N[C@@H](Cc1ccccc1)C(=O)N[C@@H](CC(C)C)C(=O)N[C@@H](CCCCN)C(=O)N[C@H](C(=O)N[C@@H](CCCCN)C(=O)NCC(=O)N[C@H](C(N)=O)[C@@H](C)CC)C(C)C)C(C)C)[C@@H](C)O)C(C)C)C(C)C
- amount of phosphorylated VEGFR1 relative to untreated control (sandwich ELISA on HUVEC lysates, 1 uM, 2 min) (VEGF receptor 1): 0.931 fold of untreated control
